{"source": "patent US11396522B2", "about": "“Bis-acetal-based substrates for imaging exo-glycosidase activity” (ALECTOS THERAPEUTICS INC., priority 2017, dated 2022)", "key": {"[1]": {"target": "T1, hOGA (Homo sapiens, UniProt O60502)", "T1 construct": "started by addition of hOGA (WT, Full-length, expressed in E. coli. as previously described); made in house; host or cells: E. coli", "T1 sequence (O60502 1-916)": "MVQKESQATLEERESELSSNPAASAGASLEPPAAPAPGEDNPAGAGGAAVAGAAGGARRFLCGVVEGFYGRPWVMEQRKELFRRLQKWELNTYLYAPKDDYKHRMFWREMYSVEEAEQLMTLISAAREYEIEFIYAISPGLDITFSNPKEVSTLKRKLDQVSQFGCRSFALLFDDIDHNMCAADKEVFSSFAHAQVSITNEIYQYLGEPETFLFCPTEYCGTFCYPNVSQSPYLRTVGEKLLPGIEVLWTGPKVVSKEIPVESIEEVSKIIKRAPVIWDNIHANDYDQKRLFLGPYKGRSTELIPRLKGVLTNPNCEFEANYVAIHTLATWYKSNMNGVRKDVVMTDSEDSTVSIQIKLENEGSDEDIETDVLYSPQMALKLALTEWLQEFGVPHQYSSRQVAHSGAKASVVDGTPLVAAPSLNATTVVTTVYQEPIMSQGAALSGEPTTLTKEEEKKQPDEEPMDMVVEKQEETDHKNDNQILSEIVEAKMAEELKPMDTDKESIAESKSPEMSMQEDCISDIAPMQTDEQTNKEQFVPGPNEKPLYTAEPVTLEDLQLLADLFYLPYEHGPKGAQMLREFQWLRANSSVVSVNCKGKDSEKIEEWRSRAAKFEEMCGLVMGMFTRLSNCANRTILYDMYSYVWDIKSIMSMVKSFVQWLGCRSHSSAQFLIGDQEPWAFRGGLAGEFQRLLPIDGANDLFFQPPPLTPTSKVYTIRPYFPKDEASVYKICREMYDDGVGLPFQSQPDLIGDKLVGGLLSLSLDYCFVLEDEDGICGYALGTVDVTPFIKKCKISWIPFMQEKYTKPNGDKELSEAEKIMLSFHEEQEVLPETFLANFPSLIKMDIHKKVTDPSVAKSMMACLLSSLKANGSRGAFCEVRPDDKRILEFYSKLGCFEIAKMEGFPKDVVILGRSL", "assay": "Interrupted assay for determination of hemiacetal breakdown", "assay_type": "biochemical", "conditions": "hemiacetal generated from the substrate; hOGA stopped after 1 min with Thiamet-G 100 μM", "experimental": "For some experiments, fluorescence kinetic assays were performed using a Varian Cary Eclipse Spectrophotometer set for 335/493 nm excitation/emission wavelengths. Slits were set at 10 nm and the detector was set on Medium voltage. Enzymatic reactions with human OGA were carried out in PBS at 37° C. and were started by addition of hOGA (WT, Full-length, expressed in E. coli. as previously described) in a total volume of 160 μL (Starna sub-micro Fluorometer cuvette). For measurements of rates using different concentrations of substrates, a hOGA concentration of 100 nM was used. For hOGA titration, 25 μM of Glyco-BABS were added to various concentration of hOGA. For interrupted assay, reaction was started by addition of hOGA (680 nM final) in solutions of GlcNAc-BABS in PBS. […] For hemiacetal breakdown rate measurements, data after Thiamet-G addition was extracted and fitted using Prism software. EDANS standard curve was established using endpoint fluorescence measurements of serial dilutions of EDANS in the relevant buffer using the same instrument parameters. Inner-Filter effect measurements were carried out in cuvette by measuring fluorescence of several concentrations of EDANS in presence of various concentrations of GlcNAc-BABS. Kinetics with Glc-BABS and GBA enzymes (GBA1 and GBA3 purchased from R&D Systems), kinetics with GALC (R&D systems) and Gal-BABS, pH stability, quenching efficiency, some inner-filter effect experiments and lysates experiments were carried out using a Molecular Devices SpectraMax i3× plate reader. Emission/Excitation wavelengths were set at 350 and 490 nm respectively for EDANS/DABCYL Glyco-BABS and at 565 and 610 nm respectively for TAMRA/BHQ2 Glyco-BABS. Fluorescence measurements were performed using Costar 96-well black plates or Nunc 384-well black plates after sample preparation in 96-well mixing plates. For GBA1, the continuous assay was performed in citrate buffer (50 mM, pH 5.5) in the presence of 0.1% Triton, 1 mg/mL BSA and 0.14% taurodeoxycholate at 25° C. […]"}, "[2]": {"assay": "pH stability of Glyco-BABS", "assay_type": "physicochemical", "conditions": "5 μM, up to 72 h, pH 2 to 10", "excerpt": "One concern with the Glyco-BABS design was the known lability of acetals under acidic conditions that has been exploited in pH-sensitive prodrugs or linkers for drug delivery.^41,42 However, we recognized that carbohydrate anomeric acetals are chemically distinct from regular acetals. Due to stabilization by the endocyclic oxygen, we expected these bis-acetals would show stability across a range of physiological pH values. We therefore assessed the stability of the bis-acetal motif toward acid and base hydrolysis (FIG. 8). To do so, we tested the pH stability of 5 μM of GlcNAc-Br-BABS 1, GlcNAc-OH-BABS 2, Glc-OH-BABS 6 and Glc-H-BABS 7 at different pH over time. We prepared solutions at various pH by mixing 0.2 M KCl+0.1 M HCl with 0.2 M KCl+0.1 M KOH. Fluorescence of EDANS and Glyco-BABS solutions (5 μM, 45 μL) at different pH was measured at different time points in Nunc 384-well plates using a SpectraMax i3× plate reader. Data (triplicates) support the highly efficient quenching and the stability of these substrates over a wide range of pH."}, "[3]": {"target": "T1, hOGA", "assay": "Turnover by hOGA within SK-N-SH lysate", "assay_type": "biochemical", "experimental": "For cell lysates experiments, SK-N-SH cells were cultured in EMEM media supplemented with 10% FBS and Penicillin/Streptomycin antibiotics. Cells were collected, washed with PBS and lyzed using ice-cold NP-40 lysis buffer (TRIS-HCl 50 mM pH 7.4, NP-40 1%, NaCl 150 mM). After centrifugation, the supernatant was diluted in PBS. The quantity of lysate used in each measurement well (384-well plate) was equivalent to 25000 cells. […] Reactions were started by adding the substrate at a final concentration of 20 μM. This experiment was carried out in quadruplicates and the rates were determined by establishing a standard curve for EDANS fluorescence in the SK-N-SH lysate.\nTo evaluate the compatibility of the BABS design with complex cellular extracts, we also measured the turnover of GlcNAc-Br-BABS in SK-N-SH cell lysate in the presence of increasing concentrations of hOGA (FIG. 9). […] Buffer control consists of PBS supplemented to lysis buffer. […] Error bars represent standard deviation over quadruplicate."}, "[4]": {"target": "T2, human O-GlcNAcase (hOGA) (Homo sapiens, UniProt O60502)", "T2 construct": "started by addition of hOGA (WT, Full-length, expressed in E. coli. as previously described); made in house; host or cells: E. coli", "T2 sequence (O60502 1-916)": "T1 sequence (O60502 1-916)", "conditions": "literature value (ref 39); cited from earlier work"}}, "data": [{"smiles": "CC(=O)N[C@H]1[C@H](O[C@@H](OCCOCCn2cc(CNC(=O)c3ccc(/N=N/c4ccc(N(C)C)cc4)cc3)nn2)[C@@](C)(Br)C(=O)NCCNc2cccc3c(S(=O)(=O)O)cccc23)O[C@H](CO)[C@@H](O)[C@@H]1O", "note": "[Compound 1, 5-((2-((2R,3R)-3-(((2S,3R,4R,5S,6R)-3-acetamido-4,5-dihydroxy-6-(hydroxymethyl)tetrahydro-2H-pyran-2-yl)oxy)-2-bromo-3-(2-(2-(4-((4-((E)-(4-(dimethylamino)phenyl)diazenyl)benzamido)methyl)-1H-1,2,3-triazol-1-yl)ethoxy)ethoxy)-2-methylpropanamido)ethyl)amino)naphthalene-1-sulfonic Acid]", "values": [{"measurement": "first order rate constant (k3) for hemiacetal breakdown", "setting": "[1]", "result": 0.01, "unit": "s⁻¹"}, {"measurement": "pH stability (increase of fluorescence)", "setting": "[2]", "result": "no significant increase of fluorescence"}, {"measurement": "turnover in SK-N-SH cell lysate with added hOGA", "setting": "[3]; 20 μM substrate, 25° C., increasing hOGA", "result": "efficiently processed within lysates"}]}, {"smiles": "CCNC1=N[C@@H]2[C@@H](O)[C@H](O)[C@@H](CO)O[C@@H]2S1", "note": "[Thiamet-G, (3aR,5R,6S,7R,7aR)-2-(ethylamino)-3a,6,7,7a-tetrahydro-5-(hydroxymethyl)-5H-Pyrano[3,2-d]thiazole-6,7-diol, reference compound]", "values": [{"measurement": "inhibition of substrate turnover in SK-N-SH lysate", "setting": "[3]; Thiamet-G 200 μM, substrate GlcNAc-Br-BABS 1", "result": "completely inhibits"}]}, {"smiles": "CO[C@@H]1O[C@H](CO)[C@@H](O)[C@H](O)[C@H]1NC(C)=O", "note": "[methyl β-D-N-acetylglucopyranoside]", "values": [{"measurement": "second order rate constant with hOGA", "setting": "[4]", "result": 440, "unit": "M⁻¹ s⁻¹"}]}]}
